These results are taken from patent US12559492B2, “BRAF degraders” (C4 Therapeutics, Inc., priority 2020, dated 2026).

In general, DC50 refers to the midpoint of the concentration-degradation curve. Low values mean a more potent degrader, high ones a less potent degrader. A word on the Emax: it is the greatest response seen or fitted, relative to the assay's reference.

This assay addresses BRAF^V600E protein (Homo sapiens, UniProt P15056, V600E). Kind of assay: HiBiT cellular BRAF V600E degradation assay. The class given is cell-based. To be noted: 24 h incubation; for DC50: A375.10 cells (HiBiT tag knocked in at N-terminal of BRAF V600E), concentration at which 50% of total cellular BRAF V600E is degraded; for Emax: A375.10 cells, Emax = amount of residual protein remaining in the cell after compound treatment, read-out: HiBit 24 h Emax. For orientation: HiBiT is a short tag that completes a luciferase, so light tracks the accessible tagged protein.

Chain of BRAF^V600E protein (P15056 whole entry V600E): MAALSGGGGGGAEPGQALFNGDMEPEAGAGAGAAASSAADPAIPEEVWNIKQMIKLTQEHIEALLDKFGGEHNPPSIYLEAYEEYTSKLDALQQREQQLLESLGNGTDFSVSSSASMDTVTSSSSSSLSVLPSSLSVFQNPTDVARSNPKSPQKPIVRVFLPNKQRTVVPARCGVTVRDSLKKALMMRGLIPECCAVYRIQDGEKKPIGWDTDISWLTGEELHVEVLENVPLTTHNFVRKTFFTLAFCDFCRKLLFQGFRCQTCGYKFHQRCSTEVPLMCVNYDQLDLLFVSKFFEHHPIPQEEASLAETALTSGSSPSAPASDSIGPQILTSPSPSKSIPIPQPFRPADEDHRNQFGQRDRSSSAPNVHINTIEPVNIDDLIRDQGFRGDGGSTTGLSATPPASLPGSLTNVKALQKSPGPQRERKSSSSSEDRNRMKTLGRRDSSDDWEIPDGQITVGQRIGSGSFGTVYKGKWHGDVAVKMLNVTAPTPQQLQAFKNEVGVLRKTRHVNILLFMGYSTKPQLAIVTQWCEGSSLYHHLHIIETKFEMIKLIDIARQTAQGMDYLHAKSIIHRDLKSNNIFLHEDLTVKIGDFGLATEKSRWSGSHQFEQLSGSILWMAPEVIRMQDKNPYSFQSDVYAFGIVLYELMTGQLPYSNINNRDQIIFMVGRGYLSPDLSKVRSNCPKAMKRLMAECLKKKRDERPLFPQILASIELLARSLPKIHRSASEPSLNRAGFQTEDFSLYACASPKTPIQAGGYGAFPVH

With `CCN(C)S(=O)(=O)Nc1ccc(F)c(C(=O)c2c[nH]c3ncc(-c4cnc(N5CCN(C(=O)NC6CCN(c7ccc(NC8CCC(=O)NC8=O)cc7F)CC6)CC5)nc4)cc23)c1F` (stereo not shown) [Example 138, N-[1-[4-[(2,6-dioxo-3-piperidyl)amino]-2-fluoro-phenyl]-4-piperidyl]-4-[5-[3-[3-[[ethyl(methyl)sulfamoyl]amino]-2,6-difluoro-benzoyl]-1H-pyrrolo[2,3-b]pyridin-5-yl]pyrimidin-2-yl]piperazine-1-carboxamide], half-maximal degradation (DC50) was put at 10.5 nM and the Emax was 7.71%.

On to `CCN(C)S(=O)(=O)Nc1ccc(F)c(C(=O)c2c[nH]c3ncc(-c4ccc(N5CCN(C(=O)NC6CCN(c7ccc(NC8CCC(=O)NC8=O)cc7F)CC6)CC5)nc4)cc23)c1F` (stereo not shown) [Example 140, N-[1-[4-[(2,6-dioxo-3-piperidyl)amino]-2-fluoro-phenyl]-4-piperidyl]-4-[5-[3-[3-[[ethyl(methyl)sulfamoyl]amino]-2,6-difluoro-benzoyl]-1H-pyrrolo[2,3-b]pyridin-5-yl]-2-pyridyl]piperazine-1-carboxamide], for which the DC50 stood at 15.2 nM and the Emax came to 8.77%.

On to `CCN(C)S(=O)(=O)Nc1cccc(C(=O)c2c[nH]c3ncc(-c4cnc(N5CCN(C(=O)NC6CCN(c7ccc(NC8CCC(=O)NC8=O)cc7F)CC6)CC5)nc4)cc23)c1F` (stereo not shown) [Example 141, N-[1-[4-[(2,6-dioxo-3-piperidyl)amino]-2-fluoro-phenyl]-4-piperidyl]-4-[5-[3-[3-[[ethyl(methyl)sulfamoyl]amino]-2-fluoro-benzoyl]-1H-pyrrolo[2,3-b]pyridin-5-yl]pyrimidin-2-yl]piperazine-1-carboxamide], for which the DC50 amounted to 2.84 nM and the Emax was found to be 7.91%.

On to `CCN(C)S(=O)(=O)Nc1ccc(F)c(C(=O)c2c[nH]c3ncc(-c4ccc(N5CCN(CCN6CCC(c7ccc(NC8CCC(=O)NC8=O)cc7)CC6)CC5)nc4)cc23)c1F` (stereo not shown) [Example 143, 5-[6-[4-[2-[4-[4-[(2,6-dioxo-3-piperidyl)amino]phenyl]-1-piperidyl]ethyl]piperazin-1-yl]-3-pyridyl]-3-[3-[[ethyl(methyl)sulfamoyl]amino]-2,6-difluoro-benzoyl]-1H-pyrrolo[2,3-b]pyridine], for which it took 4.04 nM to reach half-maximal degradation (DC50) and the maximal effect (Emax) was 11.5%.

For the molecule `CCN(C)S(=O)(=O)Nc1ccc(F)c(C(=O)c2c[nH]c3ncc(-c4ccc(N5CCN(CCN6CCC(c7ccc(OC8CCC(=O)NC8=O)cc7)CC6)CC5)nc4)cc23)c1F` (stereo not shown) [Example 144, 5-[6-[4-[2-[4-[4-[(2,6-dioxo-3-piperidyl)oxy]phenyl]-1-piperidyl]ethyl]piperazin-1-yl]-3-pyridyl]-3-[3-[[ethyl(methyl)sulfamoyl]amino]-2,6-difluoro-benzoyl]-1H-pyrrolo[2,3-b]pyridine], the DC50 is 16.1 nM and the maximal effect (Emax) is 15.6%.

With `CCN(C)S(=O)(=O)Nc1ccc(F)c(C(=O)c2c[nH]c3ncc(-c4cnc(N5CCN(CCN6CCC(c7ccc(NC8CCC(=O)NC8=O)cc7)CC6=O)CC5)nc4)cc23)c1F` (stereo not shown) [Example 146, 5-[2-[4-[2-[4-[4-[(2,6-dioxo-3-piperidyl)amino]phenyl]-2-oxo-1-piperidyl]ethyl]piperazin-1-yl]pyrimidin-5-yl]-3-[3-[[ethyl(methyl)sulfamoyl]amino]-2,6-difluoro-benzoyl]-1H-pyrrolo[2,3-b]pyridine], it took 14.4 nM to reach half-maximal degradation (DC50) and the Emax stood at 9.32%.

Take `CCN(C)S(=O)(=O)Nc1ccc(F)c(C(=O)c2c[nH]c3ncc(-c4ccc(N5CCN(CCN6CCC(c7ccc(OC8CCC(=O)NC8=O)cc7)CC6)C(=O)C5)nc4)cc23)c1F` (stereo not shown) [Example 147, 5-[6-[4-[2-[4-[4-[(2,6-dioxo-3-piperidyl)oxy]phenyl]-1-piperidyl]ethyl]-3-oxo-piperazin-1-yl]-3-pyridyl]-3-[3-[[ethyl(methyl)sulfamoyl]amino]-2,6-difluoro-benzoyl]-1H-pyrrolo[2,3-b]pyridine]: the DC50 turned out to be 17.2 nM and the Emax turned out to be 14.6%.

With `CCN(C)S(=O)(=O)Nc1ccc(F)c(C(=O)c2c[nH]c3ncc(-c4ccc(N5CCN(CCC6CCN(c7ccc(NC8CCC(=O)NC8=O)cc7)CC6)C(=O)C5)nc4)cc23)c1F` (stereo not shown) [Example 148, 5-[6-[4-[2-[1-[4-[(2,6-dioxo-3-piperidyl)amino]phenyl]-4-piperidyl]ethyl]-3-oxo-piperazin-1-yl]-3-pyridyl]-3-[3-[[ethyl(methyl)sulfamoyl]amino]-2,6-difluoro-benzoyl]-1H-pyrrolo[2,3-b]pyridine], the DC50 came to 19.8 nM and the Emax worked out at 13.9%.

On to `CCN(C)S(=O)(=O)Nc1ccc(F)c(C(=O)c2c[nH]c3ncc(-c4cnc(N5CCC(O)(CCN6CCC(c7ccc(NC8CCC(=O)NC8=O)cc7)CC6)CC5)nc4)cc23)c1F` (stereo not shown) [Example 149, 5-[2-[4-[2-[4-[4-[(2,6-dioxo-3-piperidyl)amino]phenyl]-1-piperidyl]ethyl]-4-hydroxy-1-piperidyl]pyrimidin-5-yl]-3-[3-[[ethyl(methyl)sulfamoyl]amino]-2,6-difluoro-benzoyl]-1H-pyrrolo[2,3-b]pyridine], for which half-maximal degradation (DC50) was put at 9.25 nM and the maximal effect (Emax) worked out at 10.6%.

In the case of `CCN(C)S(=O)(=O)Nc1ccc(F)c(C(=O)c2c[nH]c3ncc(-c4cnc(N5CCc6c(CN7CCC(c8ccc(NC9CCC(=O)NC9=O)cc8)CC7)cccc6C5)nc4)cc23)c1F` (stereo not shown) [Example 150, 5-[[4-[4-[(2,6-dioxo-3-piperidyl)amino]phenyl]-1-piperidyl]methyl]-2-[5-[3-[3-[[ethyl(methyl)sulfamoyl]amino]-2,6-difluoro-benzoyl]-1H-pyrrolo[2,3-b]pyridin-5-yl]pyrimidin-2-yl]-3,4-dihydro-1H-isoquinoline], the DC50 came out at 32.8 nM and the Emax was found to be 13.3%.

As to `CCN(C)S(=O)(=O)Nc1ccc(F)c(C(=O)c2c[nH]c3ncc(-c4cnc(N5CC6(CC(N7CCC(c8ccc(NC9CCC(=O)NC9=O)cc8)CC7)C6)C5)nc4)cc23)c1F` (stereo not shown) [Example 151, 5-[2-[6-[4-[4-[(2,6-dioxo-3-piperidyl)amino]phenyl]-1-piperidyl]-2-azaspiro[3.3]heptan-2-yl]pyrimidin-5-yl]-3-[3-[[ethyl(methyl)sulfamoyl]amino]-2,6-difluoro-benzoyl]-1H-pyrrolo[2,3-b]pyridine], half-maximal degradation (DC50) was put at 1.85 nM and the maximal effect (Emax) was 6.38%.

Turning to `CCN(C)S(=O)(=O)Nc1ccc(F)c(C(=O)c2c[nH]c3ncc(-c4cnc(N5CCC(n6cc7c(n6)CCN(c6ccc(NC8CCC(=O)NC8=O)cc6)C7)CC5)nc4)cc23)c1F` (stereo not shown) [Example 152, 5-[4-[(2,6-dioxo-3-piperidyl)amino]phenyl]-2-[1-[5-[3-[3-[[ethyl(methyl)sulfamoyl]amino]-2,6-difluoro-benzoyl]-1H-pyrrolo[2,3-b]pyridin-5-yl]pyrimidin-2-yl]-4-piperidyl]-6,7-dihydro-4H-pyrazolo[4,3-c]pyridine], the DC50 stood at 16.6 nM and the Emax came to 11.9%.

Consider `CCN(C)S(=O)(=O)Nc1cccc(C(=O)c2c[nH]c3ncc(-c4ccc(N5CCN(C(=O)NC6CCN(c7ccc(NC8CCC(=O)NC8=O)cc7F)CC6)CC5)nc4)cc23)c1F` (stereo not shown) [Example 154, N-[1-[4-[(2,6-dioxo-3-piperidyl)amino]-2-fluoro-phenyl]-4-piperidyl]-4-[5-[3-[3-[[ethyl(methyl)sulfamoyl]amino]-2-fluoro-benzoyl]-1H-pyrrolo[2,3-b]pyridin-5-yl]-2-pyridyl]piperazine-1-carboxamide], for which the 50% degradation concentration (DC50) came to 2.94 nM and the maximal effect (Emax) was determined as 8.25%.

Regarding `CCN(C)S(=O)(=O)Nc1ccc(F)c(C(=O)c2c[nH]c3ncc(-c4ccc(N5CCN(C(=O)CC6(O)CCN(c7ccc(NC8CCC(=O)NC8=O)cc7F)CC6)CC5)cc4)cc23)c1Cl` (stereo not shown) [Example 155, 3-[2-chloro-3-[[ethyl(methyl)sulfamoyl]amino]-6-fluoro-benzoyl]-5-[4-[4-[2-[1-[4-[(2,6-dioxo-3-piperidyl)amino]-2-fluoro-phenyl]-4-hydroxy-4-piperidyl]acetyl]piperazin-1-yl]phenyl]-1H-pyrrolo[2,3-b]pyridine], it took 6.33 nM to reach half-maximal degradation (DC50) and the Emax was 10.9%.

As for `CCN(C)S(=O)(=O)Nc1cccc(C(=O)c2c[nH]c3ncc(-c4ccc(N5CCN(C(=O)CC6(O)CCN(c7ccc(NC8CCC(=O)NC8=O)cc7Cl)CC6)CC5)nc4)cc23)c1F` (stereo not shown) [Example 156, 5-[6-[4-[2-[1-[2-chloro-4-[(2,6-dioxo-3-piperidyl)amino]phenyl]-4-hydroxy-4-piperidyl]acetyl]piperazin-1-yl]-3-pyridyl]-3-[3-[[ethyl(methyl)sulfamoyl]amino]-2-fluoro-benzoyl]-1H-pyrrolo[2,3-b]pyridine], half-maximal degradation (DC50) was put at 6.82 nM and the Emax was 9.35%.

For `CCN(C)S(=O)(=O)Nc1ccc(F)c(C(=O)c2c[nH]c3ncc(-c4cnc(N5CCN(C(=O)CC6(O)CCN(c7ccc(NC8CCC(=O)NC8=O)cc7Cl)CC6)CC5)nc4)cc23)c1F` (stereo not shown) [Example 157, 5-[2-[4-[2-[1-[2-chloro-4-[(2,6-dioxo-3-piperidyl)amino]phenyl]-4-hydroxy-4-piperidyl]acetyl]piperazin-1-yl]pyrimidin-5-yl]-3-[3-[[ethyl(methyl)sulfamoyl]amino]-2,6-difluoro-benzoyl]-1H-pyrrolo[2,3-b]pyridine], the 50% degradation concentration (DC50) came to 6.19 nM and the maximum response (Emax) was 8.52%.

As for `CCN(C)S(=O)(=O)Nc1ccc(F)c(C(=O)c2c[nH]c3ncc(-c4cnc(N5CCN(C(=O)CC6(OP(=O)(O)O)CCN(c7ccc(C8CCC(=O)NC8=O)cc7F)CC6)CC5)nc4)cc23)c1F` (stereo not shown) [Example 158e, [1-[4-(2,6-dioxo-3-piperidyl)-2-fluoro-phenyl]-4-[2-[4-[5-[3-[3-[[ethyl(methyl)sulfamoyl]amino]-2,6-difluoro-benzoyl]-1H-pyrrolo[2,3-b]pyridin-5-yl]pyrimidin-2-yl]piperazin-1-yl]-2-oxo-ethyl]-4-piperidyl]dihydrogen phosphate], the DC50 is 10.8 nM and the Emax was found to be 11.7%.
